According to paper PMC4191963, “DNA Binding Properties of the Actin-Related Protein Arp8 and Its Role in DNA Repair” (PLoS ONE, 2014):

Assays:
human Arp8 [1] = target: T1, human Arp8 (Homo sapiens, UniProt Q9H981); assay: agarose gel shift, loss of dsDNA binding; details: 1 mM MgCl2, pH 7.5, 37 °C, phiX174 dsDNA
T1 construct: gene ACTR8; full length, N-terminal His6 tag removed with PreScission protease, expressed in E. coli

human Arp8 [2] = target: T2, human Arp8 (Homo sapiens, UniProt Q9H981, E266A); assay: agarose gel shift, loss of dsDNA binding; details: 1 mM ATP, 1 mM MgCl2, pH 7.5, 37 °C, phiX174 circular dsDNA; ATP-binding pocket
T2 construct: gene ACTR8; full length, N-terminal His6 tag removed with PreScission protease, expressed in E. coli
T2 sequence (Q9H981 whole entry E266A): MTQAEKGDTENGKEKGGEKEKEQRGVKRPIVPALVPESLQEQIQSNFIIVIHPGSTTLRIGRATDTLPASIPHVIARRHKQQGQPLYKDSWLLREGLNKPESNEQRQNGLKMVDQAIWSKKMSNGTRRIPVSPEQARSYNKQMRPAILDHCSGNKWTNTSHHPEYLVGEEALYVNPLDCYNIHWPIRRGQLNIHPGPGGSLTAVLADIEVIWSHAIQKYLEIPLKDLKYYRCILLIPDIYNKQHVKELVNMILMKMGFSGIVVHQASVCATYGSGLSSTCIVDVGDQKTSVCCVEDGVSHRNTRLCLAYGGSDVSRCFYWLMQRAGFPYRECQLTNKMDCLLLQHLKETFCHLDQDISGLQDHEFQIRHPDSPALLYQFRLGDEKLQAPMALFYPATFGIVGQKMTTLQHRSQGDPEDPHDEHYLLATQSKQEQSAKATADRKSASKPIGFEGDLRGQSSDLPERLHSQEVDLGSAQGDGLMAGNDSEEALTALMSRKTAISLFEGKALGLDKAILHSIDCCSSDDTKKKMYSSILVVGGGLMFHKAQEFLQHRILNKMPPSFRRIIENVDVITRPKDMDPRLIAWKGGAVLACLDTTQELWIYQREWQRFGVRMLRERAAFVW

Arp8 = Arp8 (Homo sapiens, UniProt Q9H981 1-624); assay: competition EMSA (PAGE); 3 µM each of ssDNA, dsDNA, 3'-overhang; 250 mM NaCl; highest apparent affinity; 20 mM HEPES-NaOH pH 7.5, 160 mM NaCl (250 mM in oligonucleotide competition), 1 mM MgCl2, 1 mM DTT, 0.1 mg/ml BSA, 8% glycerol (not listed for competition), +/- 1 mM ATP or ADP, 37 C 15 min; details: protein: recombinant; tags: His6 (N-terminal) removed by PreScission; single-stranded
Chain of Arp8 (Q9H981 whole entry): as the sequence (Q9H981 whole entry E266A) above, with A266E counted along it

T1 sequence (Q9H981 whole entry): as the sequence (Q9H981 whole entry E266A) above, with A266E counted along it

Nc1ncnc2c1ncn2[C@@H]1O[C@H](COP(=O)(O)OP(=O)(O)O)[C@@H](O)[C@H]1O [ADP]
agarose gel shift, loss of dsDNA binding (human Arp8 [1]; 1 mM ADP): addition of ADP only slightly decreased the binding of Arp8 to dsDNAs

Nc1ncnc2c1ncn2[C@@H]1O[C@H](COP(=O)(O)OP(=O)(O)OP(=O)(O)O)[C@@H](O)[C@H]1O [ATP]
agarose gel shift, loss of dsDNA binding (human Arp8 [2]): ATP only partially inhibited the DNA binding activity of the Arp8 E266A mutant
agarose gel shift, loss of dsDNA binding (human Arp8 [1]; 1 mM ATP, ATP-binding pocket): Addition of ATP to the binding assay mixture significantly decreased the binding of Arp8

CCTCGATCCTACCAACCAGATGACGCGCTGCTACGTGCTACCGGAAGTCG (ssDNA) [a3 ssDNA]
binding result (Arp8): binds
